Measurements published in patent US20050209157A1, “Short bioactive peptides and methods for their use” (priority 2001, published 2005).
Values joined by “and” are separate entries in the source; they are usually repeats but may differ in a detail not shown here. Identical values can stand only once. Like-named read-outs stand apart in the source and are kept apart here. No end group written: not given here.

Assays:
[1] = tested on: S. aureus (MRSA); type: cell-based, Staphylococcus aureus; conditions: mean of three; 16 to 20 hours at 35° C.
[2] = tested on: P. aeruginosa H774; type: cell-based, Pseudomonas aeruginosa; set-up: key to FIC Index: FIC = 0.25 + MIC antibiotic in combination / MIC alone; ≤0.5 = synergy; conditions: P. aeruginosa H744; nalidixic acid + peptide at ¼ MIC; 0.5 or less = synergy
Outline: (§1)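 FIC index, computed as 0.25 plus the ratio of combination to single-agent antibiotic MIC, defines synergy when 0.5 or below. Peptide fixed at one quarter MIC while chloramphenicol or nalidixic acid was serially diluted two-fold; antibiotic-alone MICs served as baselines.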

[3] = tested on: P. aeruginosa H374; type: cell-based, Pseudomonas aeruginosa; set-up: key to FIC Index: FIC = 0.25 + MIC antibiotic in combination / MIC alone; ≤0.5 = synergy; conditions: for MIC Cm-comb.: MIC of chloramphenicol with peptide at ¼ MIC; for MIC Nal-comb.: MIC of nalidixic acid with peptide at ¼ MIC; for FIC Index: 0.5 or less = synergy
Outline: as §1

[4] = tested on: P. aeruginosa; type: cell-based, Pseudomonas aeruginosa; set-up: key to FIC Index: FIC = 0.25 + MIC antibiotic in combination / MIC alone; ≤0.5 = synergy; conditions: P. aeruginosa H744; MIC of nalidixic acid with peptide at ¼ MIC
Outline: as §1

[5] = in vitro; conditions: human, WI38 normal lung fibroblast cells, LD50 WI38, WI38 normal lung fibroblast line, MTT, 24 hours with peptide
[6] = tested on: P. acne ATCC 6919; test: Antimicrobial assays II, NCCLS broth microdilution MIC; type: cell-based, Propionibacterium acnes; conditions: mean of three, in µg/mL
[7] = tested on: S. pneumoniae C719; test: as above; type: cell-based, Streptococcus pneumoniae; conditions: mean of three, in µg/mL
[8] = tested on: S. pyogenes ATCC19615; test: as above; type: cell-based, Streptococcus pyogenes; conditions: mean of three, in µg/mL
[9] = tested on: S. pyogenes M76; test: as above; type: cell-based, Streptococcus pyogenes; conditions: mean of three; 16 to 20 hours at 35° C.
[10] = in vitro; type: cell-based, human; conditions: human, human red blood cells, pH 7, hemolytic assay, concentration at 50% hemolysis, 1 hour at 37° C.; read-out: LD50
[11] = tested on: HeLaS3; test: Anti-cancer assay, MTT, LD50; type: cell-based; conditions: 24 hours with peptide, cervical carcinoma
From the text: (§2) Numbers are LD50 values (μg/mL).

[12] = tested on: H1299; test: Anti-cancer assay, MTT, LD50; type: cell-based; conditions: 24 hours with peptide, lung large cell carcinoma
From the text: as §2

[13] = tested on: MCF7; test: Anti-cancer assay, MTT, LD50; type: cell-based; conditions: MCF7 breast adenocarcinoma line, MTT, 24 hours with peptide
From the text: as §2

[14] = tested on: BMKC; test: Anti-cancer assay, MTT, LD50; type: cell-based; conditions: BMKC cloned melanoma line, 24 hours with peptide
From the text: as §2

[15] = tested on: PC3; test: Anti-cancer assay, MTT, LD50; type: cell-based; conditions: 24 hours with peptide, prostate adenocarcinoma
From the text: as §2

[16] = tested on: SW480; test: Anti-cancer assay, MTT, LD50; type: cell-based; conditions: SW480 colon adenocarcinoma line, 24 hours with peptide
From the text: as §2

[17] = tested on: WI38; conditions: MTT, 24 hours with peptide; normal fibroblast line
[18] = tested on: S. pneumoniae C718; test: Antimicrobial assays II, NCCLS broth microdilution MIC; type: cell-based, Streptococcus pneumoniae; conditions: mean of three
[19] = tested on: S. epidermidis C621; type: cell-based, Staphylococcus epidermidis; conditions: mean of three; 16 to 20 hours at 35° C.
[20] = tested on: yeast (Saccharomyces cerevisiae); test: Antimicrobial assay I, yeast assay in RPMI 1640; type: cell-based; conditions: RPMI 1640 media
[21] = tested on: Pseudomonas aeruginosa ATCC 9027; test: Antimicrobial assay I, MIC by OD measurement; type: cell-based; conditions: 37° C. for 24 hours, absorbance 620 nm
[22] = tested on: Staphylococcus aureus ATCC 6538; test: Antimicrobial assay I, MIC by OD measurement; type: cell-based; conditions: 37° C. for 24 hours, absorbance 620 nm
[23] = chloramphenicol + peptide at ¼ MIC
[24] = nalidixic acid + peptide at ¼ MIC, FIC=0.25+MIC comb/MIC alone

Molecule	S. aureus (MRSA) MIC [1] [µg/mL]	FIC Index [2]	MIC Cm-comb. [3] [µg/mL]	MIC Nal-comb. [3] [µg/mL]	FIC Index [3, 23]	FIC Index [3, 24]	MIC Nal-comb. [4] [µg/mL]	P. acne MIC [6]	S. pneumoniae MIC [7]	S. pyogenes MIC [8]	S. pyogenes M76 MIC [9] [µg/mL]	HC50 at 1 h [10] [µg/mL]	H1299 LD50 [12] [µg/mL]	LD50 MCF7 [13] [µg/mL]	LD50 BMKC [14] [µg/mL]	PC3 LD50 [15] [µg/mL]	LD50 SW480 [16] [µg/mL]	S. pneumoniae MIC [18] [µg/mL]	S. epidermidis C621 MIC [19] [µg/mL]	yeast (MIC or MFC) [20] [µg/mL]	further results
FAKKLAKKLKKLAKKLAKKWKL-OH [P72]	16	0.75	8	2500	0.75	0.75	312	2	16	16	16	110	160	93	290	63	82	> 128	4		CC50 at 24 h [5]: 125 µg/mL; HeLaS3 LD50 [11]: 240 µg/mL; WI38 LD50 [17]: 125 µg/mL
FALLKALLKKAL-NH2 [P177, FALLKALLKKAL-NH2]	8	0.75	8	5000	0.75	1.25	312	8	16	4	8	400		190	310		310	32	4		CC50 at 24 h [5]: 270 µg/mL
CC(C)C[C@H](NC(=O)[C@H](C)NC(=O)[C@H](CC(C)C)NC(=O)[C@H](C)NC(=O)[C@H](CC(C)C)NC(=O)[C@H](CCCCN)NC(=O)[C@H](C)NC(=O)[C@H](CC(C)C)NC(=O)[C@H](CCCCN)NC(=O)[C@H](CCCCN)NC(=O)[C@H](C)NC(=O)[C@H](CC(C)C)NC(=O)[C@H](CCCCN)NC(=O)[C@H](C)NC(=O)[C@H](CC(C)C)NC(=O)[C@H](CCCCN)NC(=O)[C@H](CCCCN)NC(=O)[C@H](C)NC(=O)[C@@H](N)C(C)C)C(N)=O [P504]	4	2.25	16	5000	1.25	1.25	1248	4	8	16	8	70						64	4		
VALALKALKKLLKKLKKLAKKAL-NH2 [P510]	8	1.25	4	625	0.5	0.375	624	2	16	8	8	10						64	4		
FAKLLALALKKAL-NH2 [P97, FAKLLALALKKAL-NH2]	8	0.375	16	5000	1.25	1.25	78	8 and 16	16 and 32	4 and 8	4							32	4	50	paerug9027 (MIC) [21]: 50 µg/mL; staph6538 (MIC) [22]: 5 µg/mL
GIGKFLKKAKKFGKAFVKILKK-NH2 [P42, reference compound]	16	1.25	16	5000	1.25	1.25	624	2	8	4	4		150	31	140	66	34	32	2	200	paerug9027 (MIC) [21]: > (> indicates greater than 200 μg/mL); staph6538 (MIC) [22]: 10 µg/mL
FAKALKALLKALKAL-NH2 [P64]	8	1.25	16	5000	1.25	1.25	624	2	2	4	4		30	80	35	46		8	4	200	paerug9027 (MIC) [21]: > (> indicates greater than 200 μg/mL); staph6538 (MIC) [22]: 5 µg/mL; HeLaS3 LD50 [11]: 30 µg/mL
